Read-outs that look alike come from different tables or passages of the source.
Experiments:
[1] = target: HIV-1 reverse transcriptase (Human immunodeficiency virus type 1 group M subtype B, UniProt P04585); experiment: reverse transcriptase enzyme activity; format: biochemical
From the text: (§1) Based on the findings thus far our efforts have focused on biological assays of the temacrazine congener.

[2] = target: T1, HIV-1 protease (Human immunodeficiency virus type 1 group M subtype B, UniProt P04585); experiment: protease activity, HPLC-based assay; format: biochemical
[3] = target: T1, HIV-1 protease; experiment: Pr55gag processing assay with recombinant protease; format: biochemical; settings: enzyme pretreated one hour at 37° C.
Description: However, to insure that the HPLC-based assay (used in Table 1) was providing accurate findings, the action of temacrazine in the Gag processing assay was evaluated. In this assay, purified recombinant HIV-1 protease enzyme was pretreated with the test reagent for one hour at 37° C., and then exposed the recombinant Pr55^gag precursor polyprotein to the treated enzyme.

[4] = target: p7 nucleocapsid protein zinc fingers (Human immunodeficiency virus type 1 group M subtype B, UniProt P04591); experiment: p7NC zinc finger fluorescence assays (TSQ, Trp37); format: biochemical, HIV-1
From the text: as §1

[5] = test system: HIV-1 in ACH-2 cells; experiment: TNFα stimulated latently infected ACH-2 cells, virus production; format: cell-based; settings: Human immunodeficiency virus 1, 72 h, read-out: EC50, inhibition of HIV-1 virus replication (virion-associated p24)
Description: In a similar study, cells were either treated for 24h with TNFα followed by the addition of temacrazine, or temacrazine and TNFα were added simultaneously, or temacrazine was added 24 h […] TNFα addition. After TNFα induction and temacrazine treatment, cultures were continued for 72 h after which virion-associated p24 and cell viability (XTT dye reduction) were measured.

[6] = test system: HIV-1 mRNA; experiment: RT-PCR of HIV-1 mRNA expression and splicing after TNFα induction; format: cell-based
Description: Similar results were seen when temacrazine and TNFα were added simultaneously.
As a control the house keeping gene porphobilinogen deaminase (Hydroxymethylbilane synthase, “PBGD”) was amplified to determine uniformity of loading.

[7] = test system: HIV-1 specific mRNA; experiment: Northern blotting of total HIV-1 mRNA in U-1 cells; format: cell-based; settings: TNFα stimulated U-1 cells
From the text: To assess the possibility that temacrazine was regulating HIV-1 mRNA expression, the expression of total HIV-1 mRNA by Northern blotting was examined (FIG. 16).

[8] = test system: HIV-1RF; experiment: nude mouse hollow fiber model of HIV-1 replication; format: in vivo, nude mice
From the text: The novel mechanism of action of temacrazine and its broad range of activity against HIV-1 and its high therapeutic indexes led us to assess its in vivo and anti-viral properties in a nude mouse hollow fiber model of HIV-1 replication. Briefly, CEM-SS cells are infected with HIV-1RF and placed into hollow fibers and implanted intraperitoneal or subcutaneously into nude mice. […] Similarly, mice are being treated by oral and intravenous administration of temacrazine. Peritoneal washes and serum samples were collected and p24 expression determined by antigen capture. Intraperitoneal administration of temacrazine reduced the amount of detectable p24 in peritoneal washes by 5 to 10 fold independently of the dosage schedule. […] Thus, temacrazine reduces HIV-1 replication in vivo.

[9] = test system: HIV-1 virus; experiment: direct treatment of HIV-1 virus, infection of CEM cells; format: cell-based
Description: As a result of these preliminary data, additional experiments were carried out to establish the antiviral activity in other cell lines, using a variety of protocols. The preliminary experiments in lymphocytes were confirmed using infected macrophages. Much more extensive experiments were carried out in HIV-1-infected CEM SS leukemia cells. […] However, two derivatives were found which had low antileukemic activity while maintaining high antiviral activity. […] This gives a therapeutic index of more than 3 orders of magnitude. The corresponding therapeutic index for WMC50 is about 100-200, which is quite acceptable. Additional experiments were carried out on WMC-70. […] Further, WMC-70 appears to affect post-transcription events in the virus. […] While the inhibition of integration appears to be the principal mechanism by which this compound exerts its antiviral activity, there are perhaps other mechanisms which are also involved in the therapeutic action of this drug, and by extension, of other antiviral drugs of this class.

[10] = 8.5 mg/kg q8h intraperitoneally
[11] = 12.5 mg/kg q12h intraperitoneally
[12] = 25 mg/kg q24h intraperitoneally

O=c1c2ccccc2n2nnc3ccc(NCCCN4CCN(CCCNc5ccc6nnn7c8ccccc8c(=O)c5c67)CC4)c1c32 [temacrazine]
IC50 [1]: > 100 µM | inhibition of reverse transcriptase [1]: did not inhibit | IC50 ([1]; read-out: I50 RT Enzyme Activity, rAdT Template/primer): > 100 µM | IC50 ([1]; read-out: I50 RT Enzyme Activity, rCdG Template/primer): > 100 µM | inhibition of HIV protease [2]: did not inhibit | inhibition of protease in Gag processing assay [3]: had no inhibitory effect | damage of the gag protein zinc finger [4]: did not damage | EC50 [5]: 0.01 to 0.1 µM | PBGD (house keeping gene) expression [6]: did not decrease | expression of unspliced or singly spliced mRNA ([6]; 500 and 50 nM, prior to or 24 h after TNFα induction): completely inhibited | expression of HIV-1 multispliced transcripts ([6]; RT-PCR, rev independent mRNAs): did not alter | HIV-1 specific mRNA production ([7]; 1 nM): decrease in single spliced and unspliced mRNA with no apparent decrease in the multi-spliced mRNA | HIV-1 specific mRNA production ([7]; 10 and 100 nM): suppressed mRNA production globally | Peritoneal Wash p24, mean [8, 10]: 460 pg p24 | Serum p24, mean [8, 10]: 1790 pg p24 | Peritoneal Wash p24, mean [8, 11]: 190 pg p24 | Serum p24, mean [8, 11]: 1863 pg p24 | Peritoneal Wash p24, mean [8, 12]: 593 pg p24 | Serum p24, mean [8, 12]: 2030 pg p24 | p24 in the serum ([8]; intraperitoneal, total 25 mg/kg per day for 6 days): reduced the amount of p24 in the serum | reduction of detectable p24 in peritoneal washes ([8]; intraperitoneal, total 25 mg/kg per day for 6 days, any schedule): 5 to 10 fold | infectivity of drug-treated HIV-1 virus [9]: appeared to prevent its ability to infect CEM cells

— patent US6541483B2, “Acridone-derived compounds useful as antineoplastic and antiretroviral agents” (The United States of America as represented by the …, priority 1996, dated 2003)
